Values after ≈ are worked out from the molar mass of the structure shown.
Assays:
[1] = system: Cyp11; experiment: in vitro enzyme profile: Cyp11 inhibition; assay type: biochemical
[2] = target: T1, Cyp21 (Homo sapiens, UniProt P08686); experiment: in vitro enzyme profile: Cyp21 inhibition; assay type: biochemical
T1 sequence (P08686 1-495): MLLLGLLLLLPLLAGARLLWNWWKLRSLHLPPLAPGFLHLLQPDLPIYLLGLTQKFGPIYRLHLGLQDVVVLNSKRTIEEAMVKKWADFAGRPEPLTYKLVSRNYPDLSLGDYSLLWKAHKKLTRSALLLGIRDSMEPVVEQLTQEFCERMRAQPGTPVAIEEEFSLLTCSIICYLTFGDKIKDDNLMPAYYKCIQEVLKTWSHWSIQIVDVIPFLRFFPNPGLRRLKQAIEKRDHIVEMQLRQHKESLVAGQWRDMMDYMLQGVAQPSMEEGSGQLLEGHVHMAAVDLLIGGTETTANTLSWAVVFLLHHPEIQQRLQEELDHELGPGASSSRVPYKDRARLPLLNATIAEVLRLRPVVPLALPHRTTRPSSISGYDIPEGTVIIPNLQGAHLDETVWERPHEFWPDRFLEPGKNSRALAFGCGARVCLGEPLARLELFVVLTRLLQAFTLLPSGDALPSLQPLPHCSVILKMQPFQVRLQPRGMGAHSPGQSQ

[3] = target: Cyp3A4 (Homo sapiens, UniProt P08684); experiment: in vitro enzyme profile: Cyp3A4 inhibition; assay type: in vitro ADME
Sequence of Cyp3A4 (P08684 whole entry): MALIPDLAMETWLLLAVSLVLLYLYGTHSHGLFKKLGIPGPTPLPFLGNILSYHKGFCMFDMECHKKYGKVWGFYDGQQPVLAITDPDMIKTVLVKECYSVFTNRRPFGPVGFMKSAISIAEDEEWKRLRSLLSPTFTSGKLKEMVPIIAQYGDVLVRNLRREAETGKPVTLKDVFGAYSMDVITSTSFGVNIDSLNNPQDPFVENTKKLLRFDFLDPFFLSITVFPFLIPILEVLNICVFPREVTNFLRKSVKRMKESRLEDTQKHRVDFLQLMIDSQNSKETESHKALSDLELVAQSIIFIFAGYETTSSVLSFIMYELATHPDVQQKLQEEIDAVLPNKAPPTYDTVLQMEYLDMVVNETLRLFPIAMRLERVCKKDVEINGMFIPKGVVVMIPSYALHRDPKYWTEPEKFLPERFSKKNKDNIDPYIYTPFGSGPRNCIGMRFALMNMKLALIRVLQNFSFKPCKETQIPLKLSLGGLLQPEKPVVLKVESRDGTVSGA

[4] = target: Cyp2D6 (Homo sapiens, UniProt P10635); experiment: in vitro enzyme profile: Cyp2D6 inhibition; assay type: in vitro ADME
Sequence of Cyp2D6 (P10635 whole entry): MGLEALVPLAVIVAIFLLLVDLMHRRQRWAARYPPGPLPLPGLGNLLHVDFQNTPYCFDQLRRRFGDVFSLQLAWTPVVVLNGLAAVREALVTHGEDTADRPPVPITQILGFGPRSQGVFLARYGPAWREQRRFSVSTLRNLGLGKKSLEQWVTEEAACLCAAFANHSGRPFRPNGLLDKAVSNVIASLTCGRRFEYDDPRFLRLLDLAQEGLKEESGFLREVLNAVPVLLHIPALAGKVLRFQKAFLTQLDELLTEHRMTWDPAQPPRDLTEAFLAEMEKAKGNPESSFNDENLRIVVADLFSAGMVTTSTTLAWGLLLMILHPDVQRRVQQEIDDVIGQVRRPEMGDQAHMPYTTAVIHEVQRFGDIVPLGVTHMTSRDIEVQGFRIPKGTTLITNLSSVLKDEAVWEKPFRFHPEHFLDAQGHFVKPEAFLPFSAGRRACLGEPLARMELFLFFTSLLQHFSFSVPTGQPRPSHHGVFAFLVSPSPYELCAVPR

[5] = target: Cyp2C9 (Homo sapiens, UniProt P11712); experiment: in vitro enzyme profile: Cyp2C9 inhibition; assay type: in vitro ADME
Sequence of Cyp2C9 (P11712 whole entry): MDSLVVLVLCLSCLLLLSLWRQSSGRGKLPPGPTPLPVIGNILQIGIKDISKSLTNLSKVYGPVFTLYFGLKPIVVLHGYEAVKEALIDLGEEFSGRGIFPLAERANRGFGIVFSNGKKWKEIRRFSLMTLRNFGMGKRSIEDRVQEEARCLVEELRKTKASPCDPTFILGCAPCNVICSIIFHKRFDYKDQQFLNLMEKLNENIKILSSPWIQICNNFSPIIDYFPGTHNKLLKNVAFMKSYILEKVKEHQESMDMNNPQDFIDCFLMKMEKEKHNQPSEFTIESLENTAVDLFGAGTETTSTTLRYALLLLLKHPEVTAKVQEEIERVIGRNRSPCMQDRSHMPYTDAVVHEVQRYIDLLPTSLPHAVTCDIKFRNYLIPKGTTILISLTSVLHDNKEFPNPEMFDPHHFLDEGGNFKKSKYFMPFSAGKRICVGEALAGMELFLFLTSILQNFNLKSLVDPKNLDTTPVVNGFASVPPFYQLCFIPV

[6] = Solubility; assay type: physicochemical
[7] = GPLM t1/2 (microsomal stability); assay type: in vitro ADME; conditions: guinea pig, liver microsomes
[8] = HLM t1/2 (microsomal stability); assay type: in vitro ADME; conditions: human, liver microsomes
[9] = system: cortisol and testosterone after ACTH stimulation; experiment: elevation of cortisol and testosterone after ACTH stimulation in male Guinea pigs; assay type: in vivo, Guinea pig; conditions: for Cortisol, plasma / testosterone, plasma / Cortisol, plasma, Mean / testosterone, plasma, Mean: 25 IU/kg ACTH + 100 mg/kg PO; for Cortisol, plasma, Mean: mean of 4 Guinea pigs
Procedure: Each animal was dosed by oral gavage according to the following table at −0.5 hr, and then dosed by intramuscular injection with ACTH 25 IU/kg at 0 hr.
Animals were sedated under general inhalant anesthesia (3% isoflurane) and blood samples were retrieved at 1, 2 and 4 hrs via saphenous vein. Blood aliquots (400 uL) were collected in tubes coated with K2-EDTA, mixed gently, then kept on ice and centrifuged at 2,000 g for 5 minutes at 4° C. within 15 minutes of collection. The plasma was then harvested and kept frozen at −80° C. until further processing.

[10] = target: T2, Cyp17 (Homo sapiens, UniProt P05093); experiment: biochemical; conditions: read-out: Cyp17 IC60 (nM)
T2 sequence (P05093 1-508): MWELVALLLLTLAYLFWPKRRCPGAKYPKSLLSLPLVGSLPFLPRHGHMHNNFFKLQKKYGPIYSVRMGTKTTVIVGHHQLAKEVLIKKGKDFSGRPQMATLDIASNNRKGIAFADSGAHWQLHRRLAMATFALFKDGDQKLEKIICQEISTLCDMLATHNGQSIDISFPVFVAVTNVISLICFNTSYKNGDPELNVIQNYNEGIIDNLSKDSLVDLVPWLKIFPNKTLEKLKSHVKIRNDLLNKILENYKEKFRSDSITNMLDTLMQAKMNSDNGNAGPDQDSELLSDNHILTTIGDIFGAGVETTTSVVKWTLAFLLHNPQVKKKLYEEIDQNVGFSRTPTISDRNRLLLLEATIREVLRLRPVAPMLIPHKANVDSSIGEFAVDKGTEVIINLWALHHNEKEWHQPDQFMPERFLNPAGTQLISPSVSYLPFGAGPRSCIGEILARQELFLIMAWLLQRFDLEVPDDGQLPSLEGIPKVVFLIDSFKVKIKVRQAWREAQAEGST

[11] = male Guinea pigs, ACTH stimulation, 100 mg/kg PO, vs vehicle

C[C@]12CC[C@H](O)CC1=CC[C@@H]1[C@@H]2CC[C@]2(C)C(c3cccnc3)=CC[C@@H]12 [abiraterone, (3S,8R,9S,10R,13S,14S)-10,13-dimethyl-17-(pyridin-3-yl)-2,3,4,7,8,9,10,11,12,13,14,15-dodecahydro-1H-cyclopenta[a]phenanthren-3-ol]
Cyp11 IC60 [1]: 0.43 µM | IC60 [2]: 1.55 µM | Cyp3A4 IC60 [3]: 0.969 µM | Cyp2D6 IC60 [4]: 2 µM | Cyp2C9 IC60 [5]: 2 µM | solubility [6]: 1 µM (≈ 0.35 µg/mL) | half-life [7]: 7.7 min | half-life [8]: 60 min | Cortisol, plasma ([9]; Guinea pig#19, 1 hr): 692 ng/mL | testosterone, plasma ([9]; Guinea pig#19, 1 hr): BQL | Cortisol, plasma ([9]; Guinea pig#19, 2 hr): 574 ng/mL | testosterone, plasma ([9]; Guinea pig#19, 2 hr): BQL | Cortisol, plasma ([9]; Guinea pig#19, 4 hr): 320 ng/mL | testosterone, plasma ([9]; Guinea pig#19, 4 hr): 0.328 ng/mL | Cortisol, plasma ([9]; Guinea pig#20, 1 hr): 821 ng/mL | testosterone, plasma ([9]; Guinea pig#20, 1 hr): BQL | Cortisol, plasma ([9]; Guinea pig#20, 2 hr): 720 ng/mL | testosterone, plasma ([9]; Guinea pig#20, 2 hr): 0.473 ng/mL | Cortisol, plasma ([9]; Guinea pig#20, 4 hr): 461 ng/mL | testosterone, plasma ([9]; Guinea pig#20, 4 hr): BQL | Cortisol, plasma ([9]; Guinea pig#21, 1 hr): 659 ng/mL | testosterone, plasma ([9]; Guinea pig#21, 1 hr): BQL | Cortisol, plasma ([9]; Guinea pig#21, 2 hr): 470 ng/mL | testosterone, plasma ([9]; Guinea pig#21, 2 hr): BQL | Cortisol, plasma ([9]; Guinea pig#21, 4 hr): 325 ng/mL | testosterone, plasma ([9]; Guinea pig#21, 4 hr): BQL | Cortisol, plasma ([9]; Guinea pig#22, 1 hr): 970 ng/mL | testosterone, plasma ([9]; Guinea pig#22, 1 hr): 0.501 ng/mL | Cortisol, plasma ([9]; Guinea pig#22, 2 hr): 876 ng/mL | testosterone, plasma ([9]; Guinea pig#22, 2 hr): 0.520 ng/mL | Cortisol, plasma ([9]; Guinea pig#22, 4 hr): 529 ng/mL | testosterone, plasma ([9]; Guinea pig#22, 4 hr): 0.461 ng/mL | effect on cortisol levels [9, 11]: significantly lower | effect on testosterone levels [9, 11]: significantly lower | Cortisol, plasma, Mean ([9]; 1 hr): 786 ng/mL | Cortisol, plasma, Mean ([9]; 2 hr): 660 ng/mL | Cortisol, plasma, Mean ([9]; 4 hr): 409 ng/mL | testosterone, plasma, Mean ([9]; 1 hr): 0.501 ng/mL | testosterone, plasma, Mean ([9]; 2 hr): 0.497 ng/mL | testosterone, plasma, Mean ([9]; 4 hr): 0.395 ng/mL | IC60 [10]: 1.78 nM

— patent publication US20150337003A1, “ABIRATERONE AND ANALOGS THEREOF FOR THE TREATMENT OF DISEASES ASSOCIATED WITH CORTISOL OVERPRODUCTION” (CORTENDO AB (PUBL), priority 2013, published 2015)
